Source: US8592603B2, “Synthesis of 2-(4-aminophenyl) benzothiazole derivatives and use thereof” (Kaohsiung Medical University, priority 2011, dated 2013)
Read-outs that look alike come from different tables or passages of the source.

Tested on: BCC cells
Test: Cell viability by MTT assay after compound and UVA irradiation
Assay type: cell-based, human
Settings: for viability at 4 µM: Homo sapiens, BCC, light or radiation study, read-out: cell viability compared with untreated controls
Method: (A) Dose-response curves for compound 6 ftested against BCC cells. Cells were seeded in a 96-well plate at 2500 cells per well and cultivated overnight until cell attachment. 6f-UVA at the indicated concentration was added into the culture media in triplicate and incubated for 4 h before 1 J/cm2 UVA irradiation. Twenty-four hours after irradiation, the MTT reagent was added into each well. The absorbance is directly proportional to the number of living cells. (B) To clarify whether 6-UVA has more cytotoxicity than either UVA irradiation alone or treatment with 6 alone, cells were cultured with or without 4 μM Formula 6f before different dosage of UVA irradiation. *p<0.05, **p<0.01 as compared with the control.
The method for UVA irradiation was described in the previous study (Kao, C. S.; Yu, H. S. J. Invest. Dermatol. 1992, 98, 734). For UVA irradiation, a specific UVA lamp emitting a peak wavelength of 365 nm with intensity of 0.75 mW/cm^2 (Vilber Lourmat, Moune La Vallee, Cedex, France) was used. The cultured cells were pretreated with different agents at 4 μM or pretreated with various concentrations (0-4 μM) of Formula 6 for 4 h before UVA irradiation. The cultured cells were rinsed with phosphate-buffered saline (PBS) and then irradiated with 1 J/cm^2 UVA in PBS to avoid the formation of medium-derived toxic photoproducts induced by UV exposure. The doses of irradiation were measured using a UVX radiometer (UVP, San Gabriel, Calif., USA). Immediately after phototreatment, PBS was removed and media were added to the cells. All the following experiments were performed three times in triplicate.
Cell viability was assessed by the MTT assay, a mitochondrial function assay based on the ability of viable cells to reduce the redox indicator MTT to insoluble formazan crystals by mitochondrial dehydrogenase. Briefly, cells were seeded in a 96-well plate at the cell density of 2500 cells/well. After an overnight incubation, the cells were treated with compounds at 4 μM and incubated for 24 h. The medium was then discarded and replaced with 10 μL of MTT dye. Plates were incubated at 37° C. for 2 h. The resulting formazan crystals were solubilized in 100 μL DMSO, and the optical density was read at 540 nm with a microplate reader (MRX-II, Dynex technology, Chantilly, Va.).

Nc1ccc(-c2nc3ccc(C(F)(F)F)cc3s2)cc1 [Formula 6f, 2-(4-Aminophenyl)-6-trifluoromethylbenzothiazole]
cell survival (BCC cells, 4 μM for 4 h, 1 J/cm^2 UVA, 24 h after exposure (FIG. 3A)): below 50%
inhibitory effect on cell viability (BCC cells, different concentrations for 4 h, 1 J/cm^2 UVA (FIG. 3A)): dependent on drug concentration
viability at 4 µM (BCC cells, 0.25 J/cm^2 UVA): 71%
viability at 4 µM (BCC cells, 0.5 J/cm^2 UVA): 65%
viability at 4 µM (BCC cells, 1 J/cm^2 UVA): 45%
cytotoxicity against BCC cells (compound alone, without UVA irradiation (FIG. 3B)): does not have cytotoxicity
